In patent US20110152343A1, “PROTEASE INHIBITORS AND BROAD-SPECTRUM ANTIVIRAL” (Functional Genetics, Inc., priority 2009, published 2011):

Test system: RSV
Test: RSV infection, timing of administration (production of virus particles)

N=C(N)c1ccc2oc(/C=C/c3nc4ccc(C(=N)N)cc4[nH]3)cc2c1 [NSC 369723]
inhibition of the production of virus particles (pfu/ml) (administration by roughly 18 hours after infection with RSV): much reduced or lost | inhibition of the production of virus particles (pfu/ml) (administration from about 6-12 hours after infection with RSV): moderately inhibited
